In PubChem BioAssay (NCI):
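Assay format: 96-well plates, 48-hour exposure. GI50: concentration for 50% inhibition of growth. Definition used: TGI = concentration required for complete inhibition of growth.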

How the values were obtained:
Experiment in all cases: DTP human tumour cell line panel, 48 h
786-0 renal = system: 786-0 renal
A498 renal = system: A498 renal
A549 NSCLC = system: A549 NSCLC
ACHN renal = system: ACHN renal
BT-549 breast = system: BT-549 breast
CAKI-1 renal = system: CAKI-1 renal
CCRF-CEM leukemia = system: CCRF-CEM leukemia
COLO 205 colon = system: COLO 205 colon
DU-145 prostate = system: DU-145 prostate
EKVX NSCLC = system: EKVX NSCLC
HCC-2998 colon = system: HCC-2998 colon
HCT-116 colon = system: HCT-116 colon
HCT-15 colon = system: HCT-15 colon
HL-60(TB) leukemia = system: HL-60(TB) leukemia
HOP-62 NSCLC = system: HOP-62 NSCLC
HOP-92 NSCLC = system: HOP-92 NSCLC
HS 578T breast = system: HS 578T breast
HT29 colon = system: HT29 colon
IGROV1 ovarian = system: IGROV1 ovarian
K-562 leukemia = system: K-562 leukemia
KM12 colon = system: KM12 colon
LOX IMVI melanoma = system: LOX IMVI melanoma
M14 melanoma = system: M14 melanoma
MALME-3M melanoma = system: MALME-3M melanoma
MCF7 breast = system: MCF7 breast
MDA-MB-231 breast = system: MDA-MB-231 breast
MDA-MB-435 = system: MDA-MB-435
MDA-MB-468 breast = system: MDA-MB-468 breast
MOLT-4 leukemia = system: MOLT-4 leukemia
NCI-H226 lung = system: NCI-H226 lung
NCI-H23 lung = system: NCI-H23 lung
NCI-H460 lung = system: NCI-H460 lung
NCI-H522 lung = system: NCI-H522 lung
NCI/ADR-RES ovarian = system: NCI/ADR-RES ovarian
OVCAR-3 ovarian = system: OVCAR-3 ovarian
OVCAR-4 ovarian = system: OVCAR-4 ovarian
OVCAR-5 ovarian = system: OVCAR-5 ovarian
OVCAR-8 ovarian = system: OVCAR-8 ovarian
PC-3 prostate = system: PC-3 prostate
RPMI-8226 leukemia = system: RPMI-8226 leukemia
RXF 393 renal = system: RXF 393 renal
SF-268 CNS = system: SF-268 CNS
SF-295 CNS = system: SF-295 CNS
SF-539 CNS = system: SF-539 CNS
SK-MEL-2 melanoma = system: SK-MEL-2 melanoma
SK-MEL-28 melanoma = system: SK-MEL-28 melanoma
SK-MEL-5 melanoma = system: SK-MEL-5 melanoma
SK-OV-3 ovarian = system: SK-OV-3 ovarian
SN12C renal = system: SN12C renal
SNB-19 CNS = system: SNB-19 CNS
SNB-75 CNS = system: SNB-75 CNS
SR leukemia = system: SR leukemia
SW-620 colon = system: SW-620 colon
T-47D breast = system: T-47D breast
TK-10 renal = system: TK-10 renal
U251 CNS = system: U251 CNS
UACC-257 melanoma = system: UACC-257 melanoma
UACC-62 melanoma = system: UACC-62 melanoma
UO-31 renal = system: UO-31 renal

COc1cc(-c2nc3cc(Cl)c(Cl)cc3[nH]2)ccc1OCc1nnc(-c2ccc(Br)cc2)o1
GI50 (786-0 renal): 3.55 µM | TGI (786-0 renal): 13.1 µM | GI50 (A498 renal): 2.9 µM | TGI (A498 renal): 9.17 µM | GI50 (A549 NSCLC): 7.14 µM | TGI (A549 NSCLC): > 100 µM | GI50 (ACHN renal): 2.19 µM | TGI (ACHN renal): 4.99 µM | GI50 (BT-549 breast): 3.2 µM | TGI (BT-549 breast): 7.74 µM | GI50 (CAKI-1 renal): 13 µM | TGI (CAKI-1 renal): 28.3 µM | GI50 (CCRF-CEM leukemia): 6.07 µM | TGI (CCRF-CEM leukemia): > 100 µM | GI50 (COLO 205 colon): 24.6 µM | TGI (COLO 205 colon): > 100 µM | GI50 (DU-145 prostate): 10.1 µM | TGI (DU-145 prostate): > 100 µM | GI50 (EKVX NSCLC): 13.3 µM | TGI (EKVX NSCLC): > 100 µM | GI50 (HCC-2998 colon): 29.2 µM | TGI (HCC-2998 colon): > 100 µM | GI50 (HCT-116 colon): 4.43 µM | TGI (HCT-116 colon): 31.7 µM | GI50 (HCT-15 colon): 2.53 µM | TGI (HCT-15 colon): 7.36 µM | GI50 (HL-60(TB) leukemia): 2.61 µM | TGI (HL-60(TB) leukemia): 7.52 µM | GI50 (HOP-62 NSCLC): 4.17 µM | TGI (HOP-62 NSCLC): 17.8 µM | GI50 (HOP-92 NSCLC): 2.35 µM | TGI (HOP-92 NSCLC): 7.81 µM | GI50 (HS 578T breast): 2.72 µM | TGI (HS 578T breast): 8.27 µM | GI50 (HT29 colon): 3.61 µM | TGI (HT29 colon): > 100 µM | GI50 (IGROV1 ovarian): 11.5 µM | TGI (IGROV1 ovarian): > 100 µM | GI50 (K-562 leukemia): 4.8 µM | TGI (K-562 leukemia): > 100 µM | GI50 (KM12 colon): 52 µM | TGI (KM12 colon): > 100 µM | GI50 (LOX IMVI melanoma): 2.93 µM | TGI (LOX IMVI melanoma): 10.8 µM | GI50 (M14 melanoma): 6.68 µM | TGI (M14 melanoma): 25.3 µM | GI50 (MALME-3M melanoma): 3.25 µM | TGI (MALME-3M melanoma): 16.4 µM | GI50 (MCF7 breast): 3.28 µM | TGI (MCF7 breast): 27.5 µM | GI50 (MDA-MB-231 breast): 2.22 µM | TGI (MDA-MB-231 breast): 5.3 µM | GI50 (MDA-MB-435): 3.97 µM | TGI (MDA-MB-435): 20 µM | GI50 (MDA-MB-468 breast): 5.98 µM | TGI (MDA-MB-468 breast): 28.4 µM | GI50 (MOLT-4 leukemia): 3.72 µM | TGI (MOLT-4 leukemia): > 100 µM | GI50 (NCI-H226 lung): 1.82 µM | TGI (NCI-H226 lung): 4.81 µM | GI50 (NCI-H23 lung): 4.99 µM | TGI (NCI-H23 lung): > 100 µM | GI50 (NCI-H460 lung): 6.43 µM | TGI (NCI-H460 lung): > 100 µM | GI50 (NCI-H522 lung): 4.53 µM | TGI (NCI-H522 lung): > 100 µM | GI50 (NCI/ADR-RES ovarian): 3.42 µM | TGI (NCI/ADR-RES ovarian): > 100 µM | GI50 (OVCAR-3 ovarian): 3.33 µM | TGI (OVCAR-3 ovarian): 10.9 µM | GI50 (OVCAR-4 ovarian): 1.92 µM | TGI (OVCAR-4 ovarian): 4.12 µM | GI50 (OVCAR-5 ovarian): 5.59 µM | TGI (OVCAR-5 ovarian): > 100 µM | GI50 (OVCAR-8 ovarian): 2.85 µM | TGI (OVCAR-8 ovarian): 7.78 µM | GI50 (PC-3 prostate): 4.27 µM | TGI (PC-3 prostate): > 100 µM | GI50 (RPMI-8226 leukemia): 2.68 µM | TGI (RPMI-8226 leukemia): 8.25 µM | GI50 (RXF 393 renal): 1.87 µM | TGI (RXF 393 renal): 4.61 µM | GI50 (SF-268 CNS): 6.22 µM | TGI (SF-268 CNS): > 100 µM | GI50 (SF-295 CNS): 3.13 µM | TGI (SF-295 CNS): 10.7 µM | GI50 (SF-539 CNS): 1.81 µM | TGI (SF-539 CNS): 3.51 µM | GI50 (SK-MEL-2 melanoma): 15.7 µM | TGI (SK-MEL-2 melanoma): 35 µM | GI50 (SK-MEL-28 melanoma): 3.59 µM | TGI (SK-MEL-28 melanoma): 19 µM | GI50 (SK-MEL-5 melanoma): 3.16 µM | TGI (SK-MEL-5 melanoma): 13.2 µM | GI50 (SK-OV-3 ovarian): 11.5 µM | TGI (SK-OV-3 ovarian): 38.3 µM | GI50 (SN12C renal): 2.56 µM | TGI (SN12C renal): 7.33 µM | GI50 (SNB-19 CNS): 14.7 µM | TGI (SNB-19 CNS): > 100 µM | GI50 (SNB-75 CNS): 1.56 µM | TGI (SNB-75 CNS): 3.87 µM | GI50 (SR leukemia): 2.21 µM | TGI (SR leukemia): 5.9 µM | GI50 (SW-620 colon): 5.07 µM | TGI (SW-620 colon): > 100 µM | GI50 (T-47D breast): 2.06 µM | TGI (T-47D breast): 4.95 µM | GI50 (TK-10 renal): 4.37 µM | TGI (TK-10 renal): 17.5 µM | GI50 (U251 CNS): 3.82 µM | TGI (U251 CNS): 20 µM | GI50 (UACC-257 melanoma): 11.7 µM | TGI (UACC-257 melanoma): 35.6 µM | GI50 (UACC-62 melanoma): 3.05 µM | TGI (UACC-62 melanoma): 13.5 µM | GI50 (UO-31 renal): 1.89 µM | TGI (UO-31 renal): 4.61 µM
